Tested on: P12-Ichikawa
Experiment: cell viability relative to DMSO control; higher = less cytotoxic
Details: 48 h
How it was run: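 NOMO1 or SEM (500 cells/well) or P12-Ichikawa (1000 cells/well) leukemia cells were adapted for at least four passages in each medium. They were seeded in 1536-well plates (5 μl) and pin-dosed with library compounds in DMSO over an 11-point threefold series, 47 μM to 0.79 nM. CellTiter-Glo One luminescence was read after 48 h at 37°C. Viability is the per-plate percentage relative to DMSO wells, with cell-free wells as background.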

[1] = HPLM + 10% dialyzed FBS, 0.000781 µM
[2] = HPLM + 10% dialyzed FBS, 0.00234 µM
[3] = HPLM + 10% dialyzed FBS, 0.00702 µM
[4] = HPLM + 10% dialyzed FBS, 0.0211 µM
[5] = HPLM + 10% dialyzed FBS, 0.0632 µM
[6] = HPLM + 10% dialyzed FBS, 0.19 µM
[7] = HPLM + 10% dialyzed FBS, 0.569 µM
[8] = HPLM + 10% dialyzed FBS, 1.71 µM
[9] = HPLM + 10% dialyzed FBS, 5.12 µM
[10] = HPLM + 10% dialyzed FBS, 15.4 µM
[11] = HPLM + 10% dialyzed FBS, 46.1 µM
[12] = RPMI 5 mM glucose + 10% FBS, 0.000781 µM
[13] = RPMI 5 mM glucose + 10% FBS, 0.00234 µM
[14] = RPMI 5 mM glucose + 10% FBS, 0.00702 µM
[15] = RPMI 5 mM glucose + 10% FBS, 0.0211 µM
[16] = RPMI 5 mM glucose + 10% FBS, 0.0632 µM
[17] = RPMI 5 mM glucose + 10% FBS, 0.19 µM
[18] = RPMI 5 mM glucose + 10% FBS, 0.569 µM
[19] = RPMI 5 mM glucose + 10% FBS, 1.71 µM
[20] = RPMI 5 mM glucose + 10% FBS, 5.12 µM
[21] = RPMI 5 mM glucose + 10% FBS, 15.4 µM
[22] = RPMI 5 mM glucose + 10% FBS, 46.1 µM
[23] = RPMI 5 mM glucose + 10% dialyzed FBS, 0.000781 µM
[24] = RPMI 5 mM glucose + 10% dialyzed FBS, 0.00234 µM
[25] = RPMI 5 mM glucose + 10% dialyzed FBS, 0.00702 µM
[26] = RPMI 5 mM glucose + 10% dialyzed FBS, 0.0211 µM
[27] = RPMI 5 mM glucose + 10% dialyzed FBS, 0.0632 µM
[28] = RPMI 5 mM glucose + 10% dialyzed FBS, 0.19 µM
[29] = RPMI 5 mM glucose + 10% dialyzed FBS, 0.569 µM
[30] = RPMI 5 mM glucose + 10% dialyzed FBS, 1.71 µM
[31] = RPMI 5 mM glucose + 10% dialyzed FBS, 5.12 µM
[32] = RPMI 5 mM glucose + 10% dialyzed FBS, 15.4 µM
[33] = RPMI 5 mM glucose + 10% dialyzed FBS, 46.1 µM

Structure (SMILES) | cell viability [1] | cell viability [2] | cell viability [3] | cell viability [4] | cell viability [5] | cell viability [6] | cell viability [7] | cell viability [8] | cell viability [9] | cell viability [10] | cell viability [11] | cell viability [12] | cell viability [13] | cell viability [14] | cell viability [15] | cell viability [16] | cell viability [17] | cell viability [18] | cell viability [19] | cell viability [20] | cell viability [21] | cell viability [22] | cell viability [23] | cell viability [24] | cell viability [25] | cell viability [26] | cell viability [27] | cell viability [28] | cell viability [29] | cell viability [30] | cell viability [31] | cell viability [32] | cell viability [33]
CCNC(=O)Nc1ccc(Oc2ncnc(N)c2/C=N/OC)cc1Cl | 107% | 114% | 107% | 116% | 123% | 119% | 119% | 118% | 106% | 101% | 120% | 111% | 113% | 117% | 117% | 121% | 128% | 126% | 121% | 117% | 111% | 131% | 106% | 116% | 119% | 122% | 124% | 123% | 118% | 122% | 119% | 107% | 107%
CCNC(=O)CCC/C=C\C[C@@H]1[C@@H](/C=C/C(O)CCc2ccccc2)[C@@H](O)C[C@@H]1O (stereo not given in full) | 117% | 121% | 111% | 111% | 116% | 114% | 111% | 114% | 105% | 106% | 99.7% | 109% | 125% | 109% | 130% | 122% | 109% | 111% | 112% | 109% | 103% | 95% | 121% | 120% | 127% | 111% | 110% | 105% | 116% | 106% | 111% | 97.3% | 86.6%
COc1cc(NCc2ccc3nc(N)nc(N)c3c2C)cc(OC)c1OC | 88.8% | 88.8% | 95.8% | 101% | 99% | 94.4% | 79.4% | 62.2% | 32.9% | 24.7% | 14.7% | 82.4% | 91.7% | 86.1% | 91.5% | 96.4% | 88.4% | 96.1% | 87.8% | 68.6% | 58.9% | 1.49% | 73.2% | 82.4% | 82.7% | 87.5% | 96.2% | 87.6% | 88.3% | 85.9% | 65.7% | 26.1% | 1.75%
Oc1ccc(OCc2ccccc2)cc1 | 114% | 114% | 119% | 105% | 119% | 102% | 115% | 103% | 90.1% | 69.9% | 65.3% | 114% | 116% | 111% | 127% | 106% | 114% | 109% | 93.7% | 83.4% | 68.4% | 64.8% | 105% | 115% | 114% | 117% | 106% | 115% | 107% | 86.5% | 75.2% | 52.4% | 44.6%
COc1ccccc1[C@H](c1cccc2ccccc12)[C@@](C)(C#N)C(=O)N1CCC(c2cccc(C(F)(F)F)c2)CC1 | 99.7% | 109% | 104% | 115% | 104% | 113% | 107% | 107% | 92.7% | 84.5% | 68.8% | 108% | 115% | 104% | 107% | 119% | 99.8% | 107% | 92.4% | 80.3% | 72.7% | 60.7% | 108% | 108% | 117% | 112% | 122% | 111% | 108% | 112% | 88.7% | 71.2% | 47.9%
C=CC(=O)Nc1cc2c(Nc3ccc(F)c(Cl)c3)ncnc2cc1C#CC(C)(C)N1CCN(C)CC1 | 103% | 108% | 99.5% | 97.4% | 102% | 106% | 107% | 102% | 58.9% | 5.08% | 23.4% | 95.6% | 105% | 101% | 102% | 112% | 106% | 107% | 106% | 65.7% | 5.56% | 15.3% | 97.4% | 101% | 96.1% | 101% | 101% | 98.2% | 96.1% | 95.7% | 51% | 5.48% | 12.7%
CN1C(=O)c2sccc2N(C)c2nc(Nc3ccc([S+](N)(=O)[O-])cc3)ncc21 | 91.5% | 94% | 95.1% | 102% | 101% | 96.2% | 92.6% | 75.7% | 11.4% | 5.78% | 5.18% | 96.2% | 96% | 98.3% | 93.4% | 99.7% | 99.7% | 90% | 73.6% | 17.2% | 13.1% | 6.79% | 98.2% | 103% | 104% | 99.4% | 98.2% | 88.9% | 95.8% | 64.9% | 23.4% | 14.5% | 9.34%
COc1ccc(CCC(=O)c2c(O)cc(O[C@@H]3O[C@H](CO)[C@@H](O)[C@H](O)[C@H]3O[C@@H]3O[C@@H](C)[C@H](O)[C@@H](O)[C@H]3O)cc2O)cc1O | 115% | 117% | 116% | 110% | 119% | 116% | 117% | 113% | 107% | 107% | 38.8% | – | – | – | – | – | – | – | – | – | – | – | 105% | 115% | 118% | 116% | 108% | 114% | 111% | 113% | 107% | 106% | 105%
CC(C)C1CCC(C(=O)N[C@H](Cc2ccccc2)C(=O)O)CC1 (stereo not given in full) | 100% | 95.9% | 98.9% | 103% | 95% | 99.5% | 92.5% | 88.2% | 93.6% | 87.4% | 86.9% | 94.3% | 97.8% | 91.9% | 96.9% | 98.2% | 93.7% | 84.4% | 88.3% | 86.3% | 83.5% | 87.1% | 91.1% | 95.3% | 88.2% | 92.3% | 90.9% | 89.7% | 77.7% | 86.9% | 89.7% | 79.9% | 84.6%
CC(C)(N)C(=O)N[C@H](COCc1ccccc1)C(=O)N1CCC2(CC1)CN([S+](C)(=O)[O-])c1ccccc12 | – | – | – | – | – | – | – | – | – | – | – | – | – | – | – | – | – | – | – | – | – | – | 124% | 122% | 141% | 126% | 125% | 124% | 123% | 114% | 109% | 91.8% | 20.3%
NCCCC(N)(C(=O)O)C(F)F (stereo not given) | 116% | 116% | 113% | 117% | 118% | 110% | 113% | 112% | 108% | 101% | 98.4% | 123% | 125% | 123% | 121% | 114% | 122% | 113% | 113% | 115% | 107% | 109% | 114% | 122% | 113% | 118% | 113% | 109% | 110% | 105% | 105% | 105% | 100%
O=C(O)CCCCCC(=O)NN=C1CCCC1 | 96.2% | 103% | 99.4% | 108% | 110% | 107% | 115% | 116% | 111% | 99.7% | 73.2% | 89% | 103% | 104% | 113% | 105% | 112% | 106% | 120% | 104% | 112% | 105% | 85.4% | 98.8% | 103% | 100% | 107% | 98.1% | 113% | 99.3% | 105% | 104% | 109%
N[S+](=O)([O-])c1ccc(Nc2nc(OCC3CCCCC3)c3[nH]cnc3n2)cc1 | 114% | 115% | 117% | 118% | 48% | 24.2% | 13.1% | 15.9% | 20.3% | 52.2% | 73% | 117% | 118% | 115% | 120% | 103% | 109% | 32.3% | 14.7% | 15.2% | 19.4% | 66.2% | 120% | 123% | 111% | 120% | 109% | 108% | 25.2% | 20.7% | 22.5% | 36.5% | 59.5%
NC(=O)c1cccc(-c2cc(Nc3ccc(OC(F)(F)F)cc3)ncn2)c1 | 101% | 96.4% | 98.5% | 101% | 109% | 104% | 105% | 102% | 97% | 99.3% | 89.5% | 102% | 97.7% | 98% | 94.2% | 105% | 107% | 105% | 98.7% | 91.5% | 96.1% | 80.3% | 99.5% | 85.7% | 97.1% | 91.9% | 111% | 104% | 96.1% | 98.8% | 100% | 95.8% | 81.5%
COc1c(Cl)cc2c([nH]c3cnccc32)c1NC(=O)c1cccnc1C | 103% | 99.3% | 102% | 106% | 107% | 109% | 99% | 99.1% | 94.9% | 94.7% | 93.1% | 107% | 105% | 107% | 108% | 112% | 108% | 96.1% | 105% | 110% | 105% | 96.9% | 102% | 110% | 104% | 96.9% | 106% | 106% | 97.7% | 94.1% | 95.4% | 95.6% | 82.8%
Nc1nc(F)nc2c1ncn2[C@@H]1O[C@H](COP(=O)(O)O)[C@@H](O)[C@@H]1O | 119% | 120% | 121% | 121% | 130% | 124% | 120% | 133% | 128% | 84.2% | 52.2% | 122% | 121% | 132% | 129% | 122% | 142% | 126% | 141% | 137% | 110% | 74.8% | 127% | 123% | 123% | 123% | 130% | 138% | 124% | 126% | 129% | 99.5% | 62.1%
